Some test systems named below: CCRF-CEM leukemia; SF-295 CNS; UACC-257 melanoma; OVCAR-8 ovarian; HOP-92 NSCLC; NCI-H226 lung; U251 CNS; SR leukemia; IGROV1 ovarian; SK-MEL-2 melanoma.
What all share (assay): NCI-60 cell line screen, 48 h

Several values for one entry are separate records, joined by “and”; a condition that tells them apart may be missing. Identical values can stand only once.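 Step 1: Grow cells in 96-well plates. Step 2: Expose to compound for 48 hours at 5 concentrations. Step 3: Interpolate endpoints linearly; if unreached, use highest concentration. GI50 = concentration required for 50% inhibition of growth. The concentration for full growth arrest is given as TGI.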 A value given as a limit tells only on which side of the number the result lay.

As for `O=c1[nH]ccc2nc(N3CCC(O)CC3)nc(Nc3cccc(C(F)(F)F)c3)c12`, the GI50 in the experiment with CCRF-CEM leukemia was 2.1 µM; in the experiment with SF-295 CNS it was 2.94 µM; with UACC-257 melanoma it was 4.24 µM; with OVCAR-8 ovarian, 3.29 µM; in the experiment on HOP-92 NSCLC it was greater than 100 µM; in the experiment with NCI-H226 lung, 3.2 µM. Further, the GI50 with U251 CNS was 6.15 µM; in the experiment with SR leukemia, 0.707 µM. For the same molecule, the TGI in the experiment with CCRF-CEM leukemia was greater than 100 µM; with SF-295 CNS, 7.85 µM; in the experiment with UACC-257 melanoma, 13 µM; in the experiment on OVCAR-8 ovarian it was 40.6 µM; with HOP-92 NSCLC, greater than 100 µM; in the experiment on NCI-H226 lung it was 17.7 µM. Moreover, the values for the TGI in the experiment on U251 CNS and in the experiment with SR leukemia were greater than 100 µM and 26.9 µM, respectively.

As to `Nc1nc(=S)[nH]c(C(=O)Nc2ccc(Cl)c(Cl)c2)c1-c1ccc(Cl)cc1`, the TGI with CCRF-CEM leukemia, in the experiment on SF-295 CNS, in the experiment with UACC-257 melanoma, in the experiment with OVCAR-8 ovarian, in the experiment with HOP-92 NSCLC and with IGROV1 ovarian was greater than 100 µM each time. Moreover, the TGI with NCI-H226 lung, in the experiment with U251 CNS and in the experiment on SR leukemia was greater than 100 µM throughout.

With `COc1cc2cc(C(=O)Nc3cc(N)c4ccccc4c3CCCl)[nH]c2c(OC)c1OC`, the GI50 with CCRF-CEM leukemia is less than 0.005 µM; in the experiment with SF-295 CNS, 0.016 µM; in the experiment with OVCAR-8 ovarian, 0.0191 µM; with HOP-92 NSCLC it was 0.167 µM; with IGROV1 ovarian it was 0.0146 µM; in the experiment with SK-MEL-2 melanoma, 0.0895 µM. Further, the GI50 with NCI-H226 lung was 0.115 µM; in the experiment with SR leukemia, less than 0.005 µM. Besides, the TGI was 0.188 µM in the experiment on CCRF-CEM leukemia; greater than 16.5 µM in the experiment on SF-295 CNS; 0.841 µM in the experiment on OVCAR-8 ovarian; 11.8 µM in the experiment with HOP-92 NSCLC; 3.51 µM with IGROV1 ovarian; 0.174 µM in the experiment on SK-MEL-2 melanoma. Further, the results for the TGI in the experiment with NCI-H226 lung and in the experiment on SR leukemia were 0.308 µM and 0.0804 µM, respectively.

As for `Nc1cc(-c2cccc(OC(F)(F)F)c2)nc2ccc(N3CCCC3)cc12`, the GI50 with CCRF-CEM leukemia was 0.0381 µM and 0.0302 µM and 0.0259 µM; with SF-295 CNS, 0.0584 µM and 0.0473 µM and 0.0448 µM; in the experiment with OVCAR-8 ovarian, 0.0547 µM and 0.0497 µM and 0.0459 µM; in the experiment with HOP-92 NSCLC, 0.0888 µM and 0.184 µM and 0.0868 µM; in the experiment on IGROV1 ovarian it was 0.0698 µM and 0.0623 µM and 0.0793 µM; with SK-MEL-2 melanoma, 0.4 µM and 0.0887 µM and 0.787 µM. For the same molecule, the GI50 with NCI-H226 lung is 0.238 µM and 0.237 µM; with U251 CNS it was 0.041 µM and 0.0391 µM and 0.0371 µM; with SR leukemia it was 0.0275 µM and 0.0154 µM and 0.0135 µM. For the same molecule, the TGI in the experiment on CCRF-CEM leukemia was 11.6 µM and > 52.5 µM and > 49.6 µM; in the experiment on SF-295 CNS, 5.61 µM and 18.9 µM and > 50.5 µM; in the experiment with OVCAR-8 ovarian it was 32.6 µM and > 100 µM; with HOP-92 NSCLC, 18.2 µM and > 100 µM and 74.2 µM; in the experiment with IGROV1 ovarian it was 25.3 µM and > 100 µM; with SK-MEL-2 melanoma, 12.8 µM and > 100 µM. Moreover, the TGI with NCI-H226 lung was greater than 100 µM.

For the molecule `O=C1NC2CCC(C2)C1c1ccccc1` (centres undefined), the TGI with CCRF-CEM leukemia, with SF-295 CNS, in the experiment on OVCAR-8 ovarian, with IGROV1 ovarian, in the experiment with NCI-H226 lung and in the experiment with U251 CNS was greater than 100 µM each time. The TGI in the experiment with SR leukemia was greater than 100 µM.

As to `COC(=O)C12CC3CC(C1)CC(C(=O)OC)(C3)C2`, the TGI in the experiment with CCRF-CEM leukemia, in the experiment with SF-295 CNS, in the experiment on UACC-257 melanoma, in the experiment on OVCAR-8 ovarian, in the experiment with HOP-92 NSCLC and in the experiment on IGROV1 ovarian was greater than 100 µM each time. The TGI in the experiment on U251 CNS and in the experiment with SR leukemia was greater than 100 µM throughout.

As to `CCCCCCCCCCC(O)C1CCC(C(O)CCC(O)C2CCC(CCCCCCC[C@H](O)CC3=C[C@@H](C)OC3=O)O2)O1` (some centres undefined), the TGI with SF-295 CNS was greater than 100 µM; in the experiment on UACC-257 melanoma it was greater than 100 µM; in the experiment on OVCAR-8 ovarian it was 34 µM; with HOP-92 NSCLC, greater than 100 µM; in the experiment on IGROV1 ovarian it was greater than 100 µM; in the experiment on SK-MEL-2 melanoma, greater than 100 µM. Also, the TGI with NCI-H226 lung was 40.4 µM; in the experiment with U251 CNS it was greater than 100 µM; with SR leukemia it was greater than 100 µM. In addition, the GI50 with UACC-257 melanoma was 0.461 µM; with OVCAR-8 ovarian, 7.39 µM.

In the case of `O=C(Nc1cc[c]([Sb](=[O])([OH])[OH])cc1)c1ccccc1`, the GI50 in the experiment with CCRF-CEM leukemia, in the experiment with SF-295 CNS, with OVCAR-8 ovarian, in the experiment on HOP-92 NSCLC, in the experiment with IGROV1 ovarian and in the experiment with SK-MEL-2 melanoma was greater than 100 µM each time. Besides, the GI50 with NCI-H226 lung, in the experiment on U251 CNS and in the experiment on SR leukemia was greater than 100 µM in each case. Besides, the TGI in the experiment with CCRF-CEM leukemia, with SF-295 CNS, with OVCAR-8 ovarian, with HOP-92 NSCLC, in the experiment with IGROV1 ovarian and with SK-MEL-2 melanoma was greater than 100 µM throughout. Further, the TGI with NCI-H226 lung, in the experiment on U251 CNS and in the experiment on SR leukemia was greater than 100 µM throughout.

In the case of `O=C1NC(=S)NC(=O)C1=Cc1cccc2cc3ccccc3cc12`, the TGI was found to be 7.19 µM with SF-295 CNS; 3.37 µM with UACC-257 melanoma; 3.9 µM in the experiment with OVCAR-8 ovarian; 3.76 µM in the experiment on HOP-92 NSCLC; 3.61 µM in the experiment with IGROV1 ovarian; 4.1 µM in the experiment on SK-MEL-2 melanoma. Besides, the values for the TGI in the experiment with NCI-H226 lung, with U251 CNS and in the experiment with SR leukemia were 4.62 µM, 3.36 µM and greater than 20 µM, respectively.

`CN(C)CC/C(=N\Nc1ccccc1)c1ccccc1`: the TGI is 6.89 µM with SF-295 CNS; 36.5 µM in the experiment with HOP-92 NSCLC; greater than 100 µM with IGROV1 ovarian; 27.2 µM in the experiment on SK-MEL-2 melanoma; greater than 100 µM with U251 CNS; greater than 100 µM in the experiment on SR leukemia.

Turning to `CC(=O)N/C(=C\c1cccc([N+](=O)[O-])c1)c1nc2c3c(ccc2[nH]1)C(=O)c1ccccc1C3=O`, the TGI with CCRF-CEM leukemia, in the experiment on SF-295 CNS, with OVCAR-8 ovarian, in the experiment on HOP-92 NSCLC, in the experiment on IGROV1 ovarian and in the experiment with SK-MEL-2 melanoma was greater than 100 µM each time. For the same molecule, the TGI in the experiment with NCI-H226 lung, with U251 CNS and in the experiment with SR leukemia was greater than 100 µM in each case.

On to `O=C1c2ccccc2C2(O)NC(=S)N(c3ccccc3)C12O` (centres undefined), for which the TGI in the experiment with CCRF-CEM leukemia, in the experiment with SF-295 CNS, in the experiment on UACC-257 melanoma, in the experiment on OVCAR-8 ovarian, in the experiment on HOP-92 NSCLC and in the experiment on IGROV1 ovarian was greater than 100 µM in each case. Besides, the TGI in the experiment on SK-MEL-2 melanoma, with U251 CNS and in the experiment on SR leukemia was greater than 100 µM throughout.

These data come from PubChem BioAssay (NCI).
